The target of one test is LmoHbp2_S154C-CPM. In words: Hemin titration of purified LmoHbp2-CPM, fluorescence quenching. In kind it is binding, Listeria monocytogenes. Conditions: purified LmoHbp2-CPM 30 nM, 1-255 nM hemin, triplicate. The protocol: We substituted Cys for residue S154 in NEAT1 of LmoHbp2, expressed and purified the binding protein, and covalently modified it with coumarin maleimide (CPM). Introduction of Cys in NEAT-1 of LmoHbp2 allowed its modification by extrinsic fluorophores, transforming the purified binding protein into a sensitive sensor whose emissions inversely related to [Hn]. […] The experiment was performed in triplicate; the mean values, with standard deviations, are shown. […] When we mixed Hbp2-CPM with heterologous bacteria in solution, it reflected their hemin uptake. Addition of hemin at 300 s quenched LmoHbp2-CPM emissions, but fluorescence rebounded as bacteria {L. monocytogenes (Lmo; blue), B. subtilis (Bsu; gold), S. aureus (Sau; red), V. cholerae (Vch; green)} transported the porphyrin and depleted it from solution. […]
For fluorescence spectroscopic determinations of Gram (+) bacterial heme acquisition we used the FD sensor LmoHbp2_S154C-CPM. […] For measurements of Hn uptake by heterologous bacteria we suspended the LmoHbp2_S154C-CPM sensor protein at 30 nM in PBS+0.2% glucose in a 2 mL cuvette, added Hn to 15 nM after 300 s, and then added iron-starved bacterial cells at 600 s, to a final concentration of 5×10^7/mL, and monitored fluorescence for 2 h.

For test [1], the target named is LmoHbp2. Conditions: read-out: Kd, isocalorimetric; cited from earlier work.
Test [2] deals with LmoHbp2. Conditions: read-out: Kd, radioisotopic; cited from earlier work.
A further test has as its target T1, EcoFepA-FM (Escherichia coli, UniProt P05825, A720C).
T1 construct: expressed in transfected cells; host or cells: E. coli OKN13 (ΔtonB, ΔfepA), low-copy plasmid pHSG575 derivative
Kind of test: Fluorescence quenching binding of ferric catecholates to E. coli OKN13/pEcoFepA-FM. Conditions: summary of Table 2 for both KpnFepA-FM and EcoFepA-FM fluorescent sensors. An excerpt: (§1) Affinity determinations by spectroscopic analyses The analytical capabilities of the fluorescence spectroscopic determinations stood out when we compared the recognition of FeEnt and its glucosylated form, FeGEnt (also known as ferric salmochelin), by EcoFepA and KpnFepA. The ability of Gram (−) pathogens, including K. pneumoniae, to glucosylate enterobactin and transport FeGEnt enhances their invasiveness, in part because glucosylation impairs recognition of the iron complex by lipocalins. Additionally, whereas E. coli K12 contains a single chromosomal fepA locus that encodes its FeEnt transporter, pathogenic K. pneumoniae contain at least three fepA orthologs (chromosomal loci 1658, 4984; plasmid PII locus 0027). IroN of Salmonella typhimurium has a role in FeGEnt uptake; its closest ortholog in K. pneumoniae is plasmid-mediated fepA0027. […]
(§2) Fluorescence modifications of Cys-mutant proteins. […]
(§3) Fluorescence spectroscopy. We observed fluorophore-labeled cells in an SLM AMINCO 8100 fluorescence spectrometer, upgraded with an OLIS operating system and software (OLIS SpectralWorks, OLIS Inc., Bogart, GA), to control its shutters, polarizers and data collection. We also utilized an OLIS Clarity fluorescence spectrometer for fluorescence assays of ferric catecholate binding.

Test [3] has as its system KpnFepA-FM (KpnFepA0027_T210C). Kind of test: Fluorescence quenching binding of ferric catecholates to E. coli OKN13/pKpnFepA-FM. Also on record: species or system K. pneumoniae. Conditions: adsorption to KpnFepA.
From the text: as §1, §2, §3

Another test has as its system K. pneumoniae Kp52.145. In words: FD sensor assay of FeEnt uptake rate by test strain (sensor OKN13/pEcoFepA-FM). Format: cell-based. How it is done: FIG. 7. Uptake rates from FD assays. At t=60 s we added varying concentrations of FeEnt [(0.5 nM (green); 1 nM (yellow); 5 nM (orange); 10 nM (red)] to sensor strain OKN13/pEcoFepA-FM in the presence of test strain K. pneumoniae isolate Kp52.145. 10 nM FeEnt gave maximal quenching. For 1 and 5 nM FeEnt, at half-saturation (blue dashed line) we determined the slope of the time course (black dashed line) and the elapsed time (dashed red line). Either parameter estimated the transport rate of the test strain (see text).
Transport rates from spectroscopic analyses. The rate of fluorescence recovery in the spectroscopic system correlates to the rate of ligand depletion by bacterial transport, and comparisons of test strains in universal FD uptake assays reiterated this point. The various ESKAPE bacteria conferred fluorescence recovery at different rates (FIG. 3B). FeEnt binding at 100 s quenched the fluorescence of the FD sensor strain, E. coli OKN13/pEcoFepA-FM. […] But, the fluorescence of the E. coli strain reflected FeEnt uptake by other bacteria in the same solution: as they decreased [FeEnt] by cellular transport the intensity of OKN13/pEcoFepA-FM returned to initial levels (as described in FIG. 1B). The assay monitored FeEnt uptake by E. coli expressing chromosomal (Eco; cyan) or plasmid-mediated (Eco/pfepA+; blue) FepA, and ESKAPE species K. pneumoniae (Kpn; red), A. baumannii (Aba; gold), P. aeruginosa (Pae; green), E. cloacae (Ecl; magenta). […]
Species-specific fluorescence assay of FeEnt uptake: KpnFepA-FM. […] For species-specific ferric siderophore transport assays of Gram (−) bacteria we added an iron complex to 2×10^7 labeled cells in a quartz cuvette (final volume, 2 mL) with stirring at 37° C., and monitored the time course of fluorescence emissions at 520 nm. […] After addition of the ferric siderophore, we monitored the time-course of fluorescence emissions at 520 nm for 15-30 minutes, with stirring. […]

In a further test the target is T2, EcoFepA (Escherichia coli, UniProt P05825).
T2 construct: expressed in transfected cells; host or cells: E. coli OKN3 (ΔfepA), plasmid pITS23 (pHSG575, ecofepA+)
Conditions: read-out: Kd, previous determinations; cited from earlier work.

Test [4] has as its system chromosomally expressed FepA in E. coli. Conditions: cited from earlier work.

Several values for one entry are separate records, joined by “and”; a condition that tells them apart may be missing. Equal values may be shown once. Read-outs that look alike come from different tables or passages of the source.

T1 sequence (P05825 23-746 A720C): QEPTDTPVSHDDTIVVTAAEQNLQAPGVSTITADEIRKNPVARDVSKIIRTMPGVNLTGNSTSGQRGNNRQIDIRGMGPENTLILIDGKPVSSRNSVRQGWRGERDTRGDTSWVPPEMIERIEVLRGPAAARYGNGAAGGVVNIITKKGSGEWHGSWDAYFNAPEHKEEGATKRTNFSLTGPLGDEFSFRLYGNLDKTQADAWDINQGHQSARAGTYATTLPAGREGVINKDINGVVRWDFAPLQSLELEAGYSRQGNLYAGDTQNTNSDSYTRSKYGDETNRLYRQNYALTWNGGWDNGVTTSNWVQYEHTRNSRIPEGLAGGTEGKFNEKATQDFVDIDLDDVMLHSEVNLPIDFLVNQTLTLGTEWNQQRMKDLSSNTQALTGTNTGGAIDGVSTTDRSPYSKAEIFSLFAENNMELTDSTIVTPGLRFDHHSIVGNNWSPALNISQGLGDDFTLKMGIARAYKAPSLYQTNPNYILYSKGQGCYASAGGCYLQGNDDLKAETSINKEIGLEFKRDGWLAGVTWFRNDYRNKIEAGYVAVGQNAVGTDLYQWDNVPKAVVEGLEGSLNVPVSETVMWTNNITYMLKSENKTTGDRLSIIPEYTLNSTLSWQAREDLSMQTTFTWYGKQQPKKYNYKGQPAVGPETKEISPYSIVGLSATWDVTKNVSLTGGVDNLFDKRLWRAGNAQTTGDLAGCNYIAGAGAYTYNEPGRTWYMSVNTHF
T2 sequence (P05825 23-746): as the sequence (P05825 23-746 A720C) above, with C698A counted along it

On to hemin, for which the dissociation constant (Kd) – broadly, the concentration at which binding is half-saturated – on LmoHbp2_S154C-CPM was 12 ± 3.1 nM; on LmoHbp2 [1], 25 to 48 nM; at LmoHbp2 [2], 12 nM.

Turning to `O=C(N[C@H]1COC(=O)[C@@H](NC(=O)c2cc([C@@H]3O[C@H](CO)[C@@H](O)[C@H](O)[C@H]3O)cc(O)c2O)COC(=O)[C@@H](NC(=O)c2cc([C@@H]3O[C@H](CO)[C@@H](O)[C@H](O)[C@H]3O)cc(O)c2O)COC1=O)c1cccc(O)c1O.[Fe+3]` [FeGEnt, ferric salmochelin], on EcoFepA-FM, the Kd was 6 to 280 nM. For the same compound, the “fold lower affinity than FeEnt” value in test [3] was 20 fold.

Turning to `O=C(N[C@H]1COC(=O)[C@@H](NC(=O)c2cccc([O-])c2[O-])COC(=O)[C@@H](NC(=O)c2cccc([O-])c2[O-])COC1=O)c1cccc([O-])c1[O-].[Fe+3]` [FeEnt, ferric enterobactin], the Kd on EcoFepA-FM is ~0.38 nM and 0.4 nM; on EcoFepA, 0.2 to 0.5 nM. Also, the “time required to deplete 5 nM FeEnt to 0.38 nM (half-saturation)” value in the test with K. pneumoniae Kp52.145 (10^7 cells/mL K. pneumoniae Kp52.145) was found to be 520 s. For the same compound, the “mean uptake rate over the first 520 s” value with K. pneumoniae Kp52.145 (10^7 cells/mL K. pneumoniae Kp52.145, 5 nM FeEnt) stood at 53 pMol/10^9 cells/min. Besides, the Vmax result is listed as “≈ 66 pMol/10^9 cells/min” in the test with K. pneumoniae Kp52.145 (K. pneumoniae Kp52.145, mean rate ÷ 0.8) and 50-100 pMol/min/10^9 cells in test [4].

The values are drawn from patent US12130282B2, “Universal fluorescence assay of high affinity ligand transport” (priority 2018, dated 2024).
